# A melting point compilation (Tetko et al.; mined from patent text by program, amines drawn as free bases though some values may be those of a salt)
row,Structure (SMILES),melting point [°C]
1,Cc1cc(C#N)cc(C(=O)NC(C)C2CC2)c1NC(=O)c1cc(Br)nn1-c1ncccc1Cl (stereo unspecified),244 to 245
2,O=c1[nH]c2ncc(-c3cn[nH]c3)nc2n1CC1CCCCC1,246 to 248
3,Nc1nc(-c2ccc(CCN3CCN(c4cccc5ccccc45)CC3)cc2)cs1,274 to 277
4,O=C(Nc1cc(Cl)c([N+](=O)[O-])cc1O)c1ccc(Cl)c(Cl)c1,263 to 265
5,Cc1oc(-c2ccc(-c3ccc(-c4nc(CCO)c(C)o4)cc3)cc2)nc1CCO,134 to 135
6,N#Cc1c(NC(=O)C2CCCCC2)sc(-c2ccccc2)c1[N+](=O)[O-],213 to 214
7,Cc1csc2ccc3[nH]c4c(c3c12)CN(CCCC(c1ccc(F)cc1)c1ccc(F)cc1)CC4,158
8,NS(=O)(=O)c1ccc(-n2nc(C(=O)O)cc2-c2ccccc2)cc1,188 to 191
9,O=C1CC(CCO)c2ccccc2N1 (stereo unspecified),119 to 120
10,Cc1cc(O)c(S(=O)(=O)CC2CCCCC2)c(=O)o1,104 to 106
11,CC(CCCc1ccccc1)n1nnc2c(=O)[nH]c(C(=O)c3ccccc3)nc21 (stereo unspecified),105
12,O=C1NC(=O)c2c1cc1ccc3c(c1c2-c1ccncc1)OCO3,299 to 302
13,CC(C)C[C@H](NC(=O)OCC1CCCCC1)C(=O)NC(C)(C)C(=O)c1c(-c2ccccc2)c1=O,42 to 49
14,O=C(c1ccccc1)C1(c2ccccc2)COCO1 (stereo unspecified),66 to 66.5
15,CC(C)(C)NCCNC(=O)Cn1ncc(-c2ccccc2)c1-c1ccccc1,115 to 116
16,Clc1c2ccccc2nc2c1oc1ccccc12,158 to 159
17,OC1CSC(Oc2ccc(-c3ccc(N4CCCCC4)cc3)nc2)C(O)C1O (stereo unspecified),221
18,CC(C)(C)OC(=O)[C@@H](CCc1ccc([N+](=O)[O-])cc1)OS(=O)(=O)c1ccc([N+](=O)[O-])cc1,97 to 98
19,CCc1ccc(-c2nc(-c3ccccc3Cl)nn2C)c(Cl)c1,75.5 to 77.5
20,CCOc1ccc(-c2cc(C3CCCCC3)nc(C3CCCCC3)c2)cc1,106
21,C=Cc1nnc2ccc3ccccc3n12,117 to 118
22,O=C(NCc1ccccc1)c1ccc(F)c2c1CC(N(CCCc1c[nH]c3ccc(F)cc13)C1CCC1)CO2 (stereo unspecified),124
23,O=C1Nc2nnccc2C(=O)C1c1c(F)cc(F)cc1F (stereo unspecified),> 330
24,CC(=S)NC[C@H]1CN(c2ccc(-c3nc(Cn4cccn4)cs3)c(F)c2)C(=O)O1,166 to 168
25,O=S(=O)(c1cccc(F)c1)c1ccc2[nH]c3c(c2c1)CCNCC3,153 to 156
26,CCCCCCCOc1ccc(C(=O)Cl)cc1OCCCCCCC,57 to 58

row,Structure (SMILES),melting point [°C]
1,CCCCNc1nc2ccccc2c2c1ncn2C,98 to 100
2,CC(c1ccncc1)C(O)(Cn1cncn1)c1ccc(F)cc1F (stereo unspecified),161 to 163
3,O=C(O)C=CC=CCCCCCc1cccc2cncn12,120 to 122
4,Nc1ccc(OCc2cscn2)cc1,114 to 115
5,CN(CC(=O)OC(C)(C)C)Cc1ccc(CCn2cnc3cc(-c4ccc(Cl)cc4)sc3c2=O)cc1,130
6,Cc1cc(C2CCN(C(=O)OC(C)(C)C)CC2)cnc1COc1ccc(S(C)(=O)=O)cc1,130 to 132
7,O=C(CI)Oc1cccc2c1C(=O)c1cn3c(c1C2=O)Cc1ccccc1C3,> 260
8,Cc1sc(-c2ccccc2)nc1COc1ccc(CCCC2OCCO2)cc1,80 to 81
9,COc1ccc(-n2nc(C#N)cc2-c2ccc(S(C)(=O)=O)cc2)cc1Cl,201 to 203
10,COC(=O)c1cccc(SCc2c(O[C@H](Cn3ccnc3)c3ccccc3)ccc3c2CCCC3=O)c1,65
11,Cc1nccn1-c1nc(-c2ccc(Cl)cc2)c(CCCC2=NCCO2)o1,88 to 89
12,CCOc1ccc(-n2c(Cl)ccc2-c2ccc(S(N)(=O)=O)cc2)cc1,124 to 125
13,CC(C)c1ncc2n1-c1ccc(Cl)cc1C(c1ccccc1F)=NC2,168 to 169
14,O=C(O)Cc1ccc(-c2cn3cccnc3n2)cc1,264 to 265
15,Nc1cc(C=C2c3ccccc3CCc3ccccc32)ccc1O,159
16,Nc1cc(Br)nc(C(=O)O)c1Cl,182 to 183
17,COC(=O)Cc1ccccc1NC(=S)N(C)NC(=O)c1ccccc1,148 to 150
18,CCCCNC(=O)C(O[Si](C)(C)C(C)(C)C)C(c1ccccc1)c1ccccc1 (stereo unspecified),73 to 74
19,O=[N+]([O-])c1ccc(OC2OC(CO)C(O)C2O)cc1 (stereo unspecified),156 to 158
20,OCc1cc2ccccc2c(-c2ccccc2)c1CO,150
21,O=C(NNc1ccc(Cl)cc1)c1cnc2ccc(I)cc2c1O,250 to 252
22,COC=C(C(=O)OC)n1ccc2ccc(-c3csc(-c4ccc(C)cc4)n3)cc21,145 to 146
23,CCOC(=O)N1CCN(c2ccncc2N)CC1,141 to 142
24,CN(C)CC#CCN1CCNC1=O,83 to 87
25,O=C(CSCc1ccc2c(c1)OCO2)NO,127 to 128
26,CN1CCC(c2c(O)cc(O)c3c(=O)cc(-c4ccccc4Cl)oc23)C1CC#N (stereo unspecified),107 to 108

row,Structure (SMILES),melting point [°C]
1,COc1ccc(S(N)(=O)=O)cc1C(C)O (stereo unspecified),165 to 166
2,O=CNc1nc(-c2ccccc2)c2cc(Cl)ccc2n1,252
3,CC(C)C1(C)NC(c2ncccc2C#N)=NC1=O (stereo unspecified),144 to 148
4,COc1ccc2c(c1)CCC1=C2CCC2(C)C(=O)CCC12 (stereo unspecified),110 to 120
5,O=C(Nc1ccc(N2CCN(C(=O)Nc3ccc(OCCO)cc3C(F)(F)F)CC2)cc1)Nc1ccccc1F,219 to 220
6,Cc1ccc(S(=O)(=O)OCCC(=C(c2ccccc2)c2ccccc2)c2ccccc2)cc1,137 to 139
7,CCCCCS(=O)(=O)NC(=O)/C=C/c1ccc(OCC(C)=O)cc1Oc1ncc(C(F)(F)F)cc1Cl,187 to 188
8,COCC(=O)Nc1cccc(C2(C3CCN(C(=O)c4ccc(C(=O)OC)cc4)CC3)N=C(N)N(C)C2=O)c1 (stereo unspecified),161 to 163
9,O=C(O)CCn1[nH]c(=O)c2ccccc2c1=O,201 to 203
10,COc1cccc(Cc2nc3c(N)ncnc3[nH]2)c1,163 to 165
11,C=C(C(=O)OCC)N1C(C)(C)CC(OC(=O)C=CC(=O)OC2CC(C)(C)N(C(=C)C(=O)OCC)C(C)(C)C2)CC1(C)C,185 to 186
12,CCOC(=O)COc1ccc(NC(=O)NC(=O)c2ccc(C#N)cc2)cc1,200 to 203
13,CCC(=O)c1cc2c(s1)CCCN(CCCCCl)C2=O,91 to 92
14,CC(=O)N(C)c1nc(C)co1,27 to 29
15,O=[N+]([O-])c1ccc(CCN2CCN(c3ccc([N+](=O)[O-])cc3Cl)CC2)cc1,100 to 102
16,CCOC(=O)Nc1sc(C)c(C#N)c1S(=O)(=O)NC(=S)NC(C)C,169 to 171
17,CCN1CCN(C/C=C/c2ccc3c(Nc4ccc(Sc5nccn5C)c(Cl)c4)c(C#N)cnc3c2)CC1,232 to 236
18,CN(C)C(=O)CON(Cc1ccc(F)cc1)C(=O)C=C(O)C(=O)O,118 to 120
19,O=C(O)c1cc(C(=O)O)cc(N2C(=O)C=CC2=O)c1,> 300
20,C=CCN1CC(=O)N(c2cc(Cl)ccc2C)C1=S,106 to 109
21,O=C(c1ccc(O)cc1)c1c(-c2ccccc2)sc2cc(O)ccc12,245 to 246
22,CC(C)[C@H](CO)Cc1ccc(C(C)(C)C)cc1,49 to 51
23,CC(C)[C@H](NC(=O)CCC(=O)Nc1ccccc1)C(N)=O,218 to 220
24,COc1cc2c(cc1Nc1ncc(Cl)c(N[C@@H]3CCCC[C@H]3NS(C)(=O)=O)n1)CCN(CC(F)(F)F)CC2,103 to 110
25,COC(=O)c1ccccc1NC(=O)CNc1ccccc1Br,89 to 91
26,Cn1c(-c2ccc(Br)cc2)cnc1[C@H](Cc1ccccn1)N(C=O)c1cc2cc(Cl)ccc2o1,185 to 188

row,Structure (SMILES),melting point [°C]
1,N#CC1(C#N)CCOCC1,110 to 112
2,COc1cc2c(cc1O)CCN(CC(=O)c1ccc(OC)c(OC)c1)C2,149 to 150
3,COC(=O)C(CC(=O)c1ccc(Oc2ccccc2)cc1)SC(C)=O (stereo unspecified),59 to 61
4,Cc1ccc(S(=O)(=O)Nc2ccc3nc(N4CCN(C)CC4)c(N4CCN(C)CC4)nc3c2)cc1,234 to 237
5,CCOC(=O)CCOc1cccc2c1CCCC2=O,57 to 59
6,O=c1c2cc(OCc3ccccc3)ccc2[nH]c2c([N+](=O)[O-])cc([N+](=O)[O-])c(Cl)c12,217 to 220
7,COc1ccc2c(c1)C(CCNC(C)=O)C1(CC2)Cc2ccccc2C1 (stereo unspecified),139 to 141
8,COCc1c(C(=O)OC(C)C)ncc2[nH]c3cccc(OCc4ccccc4)c3c12,173 to 174
9,COCC(=O)Oc1cc(=O)n(-c2ccccc2)c2ncccc12,155 to 157
10,Cc1nc2ccc(C(=O)NS(=O)(=O)c3ccccc3)nc2n1Cc1ccc(C(=O)O)cc1Cl,155 to 160
11,CC(C)c1cccc(C(C)C)c1NC(=NCc1cccc(CCl)c1)Nc1c(C(C)C)cccc1C(C)C,122 to 124
12,O=C(Nc1ccc(C(=O)O)c(O)c1)c1ccc(-c2ccccc2)cc1,266
13,COc1ccc(SCCNC(=O)N2CCCC2=O)cc1,64 to 65
14,CCSC(C)(C)C(=O)CC(=O)Nc1cc([N+](=O)[O-])ccc1OC,138 to 140
15,O=C(O)C=Cc1cc(Cl)ccc1C(=O)O,200 to 202
16,Fc1nc2ccccc2cc1Br,75 to 76
17,COC(=O)Cn1c(C(=O)Nc2nc(-c3cc(OC)c(C)cc3OC)c(CCC3CCCCC3)s2)cc2cc(OC)ccc21,173 to 175
18,CCCN(CCC)C(=O)CN(C(=O)CNC(=O)Nc1cccc(C)c1)c1ccccc1,182
19,Cn1c(CCC#Cc2cccc(CF)n2)nc2ccccc21,95.3 to 96.3
20,CCN(CC)C(=S)SC(C[N+](=O)[O-])c1ccccc1 (stereo unspecified),81 to 82.5
21,Cc1cccc(CNc2nc(NC[C@@H](C)O)nc3c2ncn3C(C)C)c1O,145 to 147
22,Cc1ccc2c(O)cnnc2c1,114 to 115
23,COc1ccccc1-n1c(=O)[nH]c2c(C(N)=O)nc(N[C@H]3CC[C@H](O)CC3)nc21,165 to 167
